Laboratory results published in patent US20260137701A1, “CHOLESTENOIC ACID (CA) AND A SULFATED DERIVATIVE THEREOF, 3[BETA]-SULFATE-5-CHOLESTENOIC ACID (CA3S), AS ENDOGENOUS EPIGENETIC REGULATORS” (priority 2022, published 2026).

Legend:
Human THP-1 macrophages = test: LPS induced inflammatory gene expression in macrophages, real-time RT-PCR; format: cell-based; details: 20 uM CA3S 30 min, then 2 ug/ml LPS 6 hours
Experimental: Human THP-1 were plated in 6 well plates with RPMI 1640 media (10% FBS) and induced to be macrophages by 100 nM PMA for 3 days at 37° C. in a […] incubator. The media was then changed to fresh RPMI 1640 (serum free), the cells were treated with 20 uM CA3S in PG for 30 min, and then the cells were stimulated with 2 ug/ml LPS for 6 hours. Total mRNA was extracted by the Promega SV total RNA isolation system (Promega, Madison, WI, USA) and 1 ug of RNA were converted to cDNA with a Reverse Transcription kit (Qiagen, Hilden, Germany). IL-1A, IL-1B, IL-6, IL-8, COX-2, NFKB and TNFα gene expressions were determined by Real-time RT-PCR that was performed using SYBR Green as the indicator on ABI 7500 Fast Real-Time PCR System (Applied Biosystems, Foster City, CA).

Hep G2 cells = format: in vitro ADME, human
Text: Mitochondrial oxysterols, including cholestenoic acid (CA), 25-hydroxycholesterol (25HC), and 27-hydroxycholesterol (27HC), are potent regulators involved in important biological events such as lipid metabolism and inflammatory responses. However, their intracellular catabolic pathways have not been fully explored. In this study, we investigated the metabolic pathways of these oxysterols and their roles in the communication between hepatocytes and macrophages.

recombinant DNMT1 = recombinant DNMT1 (Homo sapiens, UniProt P26358); test: DNMT1 enzyme kinetic (activity) assay, 3H-SAM filter; format: biochemical; details: FIG. 1B, 0-0.0001 M
Experimental: (§1) The enzyme kinetic studies were carried out by Reaction Biology Company. For the DNMT1 activity assay, the substrate solution, 0.001 mg/ml Poly(dI-dC): Poly(dI-dC) in 50 mM Tris-HCl, pH 7.5, 50 mM NaCl, 5 mM EDTA, 5 mM DTT, 1 mM PMSF, 5% glycerol, 0.01% Brij™35, 1% DMSO was used. For the DNMT3a/3b activity assay, 0.0075 mg/ml Lambda DNA in 50 mM Tris-HCl, pH 7.5, 50 mM NaCl, 5 mM EDTA, 5 mM DTT, 1 mM PMSF, 5% glycerol, 1% DMSO, was used. The indicated DNMT1, DNMT3a and DNMT3b were added to the appropriate substrate solution and gently mixed. Amounts of CA ranging from 5.08E-09 to 0.0001 M in DMSO were added to the reaction mixture by using Acoustic Technology (Echo® 550, LabCyte Inc. Sunnyvale, CA). The mixtures were first incubated for 15 min, then ^3H-SAM was added to the reaction mixture to initiate the reaction, and the mixture was incubated for 60 min at 30° C. Following incubation, the reaction mixture was finally transferred to filter-paper for detection of radioactivity counts.

recombinant DNMT3b = recombinant DNMT3b (Homo sapiens, UniProt Q9UBC3); test: DNMT3b enzyme kinetic (activity) assay, 3H-SAM filter; format: biochemical; details: FIG. 1B, 0-0.0001 M
Experimental: as §1

recombinant DNMT3a = recombinant DNMT3a (Homo sapiens, UniProt Q9Y6K1); test: DNMT3a enzyme kinetic (activity) assay, 3H-SAM filter; format: biochemical; details: FIG. 1B, 0-0.0001 M
Experimental: as §1

recombinant DNMT3a, sequence (Q9Y6K1 whole entry, looked up): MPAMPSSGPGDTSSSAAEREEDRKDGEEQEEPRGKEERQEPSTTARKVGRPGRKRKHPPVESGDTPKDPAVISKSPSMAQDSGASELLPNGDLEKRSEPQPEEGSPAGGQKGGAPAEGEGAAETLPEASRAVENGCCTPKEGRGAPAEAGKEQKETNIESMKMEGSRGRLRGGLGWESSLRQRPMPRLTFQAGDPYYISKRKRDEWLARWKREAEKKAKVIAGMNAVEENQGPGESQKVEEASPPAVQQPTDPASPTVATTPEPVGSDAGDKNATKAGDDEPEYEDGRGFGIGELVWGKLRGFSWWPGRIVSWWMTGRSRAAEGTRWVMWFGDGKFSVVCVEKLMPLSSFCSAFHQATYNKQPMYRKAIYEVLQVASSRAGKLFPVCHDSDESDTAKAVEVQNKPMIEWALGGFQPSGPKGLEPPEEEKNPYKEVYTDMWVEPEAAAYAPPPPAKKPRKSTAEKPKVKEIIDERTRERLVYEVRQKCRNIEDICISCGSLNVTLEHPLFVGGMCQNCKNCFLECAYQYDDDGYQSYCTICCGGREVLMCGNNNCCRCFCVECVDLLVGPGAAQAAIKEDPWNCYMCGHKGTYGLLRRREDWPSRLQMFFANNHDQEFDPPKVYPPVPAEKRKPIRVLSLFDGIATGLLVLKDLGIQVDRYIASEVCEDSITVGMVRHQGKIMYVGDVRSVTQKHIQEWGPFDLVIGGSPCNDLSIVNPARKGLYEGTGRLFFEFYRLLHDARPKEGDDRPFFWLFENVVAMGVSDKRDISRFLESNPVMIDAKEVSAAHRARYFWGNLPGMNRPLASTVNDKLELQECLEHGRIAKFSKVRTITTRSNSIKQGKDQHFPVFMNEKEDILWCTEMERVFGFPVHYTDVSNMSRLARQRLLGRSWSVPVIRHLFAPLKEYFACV
recombinant DNMT1, sequence (P26358 whole entry): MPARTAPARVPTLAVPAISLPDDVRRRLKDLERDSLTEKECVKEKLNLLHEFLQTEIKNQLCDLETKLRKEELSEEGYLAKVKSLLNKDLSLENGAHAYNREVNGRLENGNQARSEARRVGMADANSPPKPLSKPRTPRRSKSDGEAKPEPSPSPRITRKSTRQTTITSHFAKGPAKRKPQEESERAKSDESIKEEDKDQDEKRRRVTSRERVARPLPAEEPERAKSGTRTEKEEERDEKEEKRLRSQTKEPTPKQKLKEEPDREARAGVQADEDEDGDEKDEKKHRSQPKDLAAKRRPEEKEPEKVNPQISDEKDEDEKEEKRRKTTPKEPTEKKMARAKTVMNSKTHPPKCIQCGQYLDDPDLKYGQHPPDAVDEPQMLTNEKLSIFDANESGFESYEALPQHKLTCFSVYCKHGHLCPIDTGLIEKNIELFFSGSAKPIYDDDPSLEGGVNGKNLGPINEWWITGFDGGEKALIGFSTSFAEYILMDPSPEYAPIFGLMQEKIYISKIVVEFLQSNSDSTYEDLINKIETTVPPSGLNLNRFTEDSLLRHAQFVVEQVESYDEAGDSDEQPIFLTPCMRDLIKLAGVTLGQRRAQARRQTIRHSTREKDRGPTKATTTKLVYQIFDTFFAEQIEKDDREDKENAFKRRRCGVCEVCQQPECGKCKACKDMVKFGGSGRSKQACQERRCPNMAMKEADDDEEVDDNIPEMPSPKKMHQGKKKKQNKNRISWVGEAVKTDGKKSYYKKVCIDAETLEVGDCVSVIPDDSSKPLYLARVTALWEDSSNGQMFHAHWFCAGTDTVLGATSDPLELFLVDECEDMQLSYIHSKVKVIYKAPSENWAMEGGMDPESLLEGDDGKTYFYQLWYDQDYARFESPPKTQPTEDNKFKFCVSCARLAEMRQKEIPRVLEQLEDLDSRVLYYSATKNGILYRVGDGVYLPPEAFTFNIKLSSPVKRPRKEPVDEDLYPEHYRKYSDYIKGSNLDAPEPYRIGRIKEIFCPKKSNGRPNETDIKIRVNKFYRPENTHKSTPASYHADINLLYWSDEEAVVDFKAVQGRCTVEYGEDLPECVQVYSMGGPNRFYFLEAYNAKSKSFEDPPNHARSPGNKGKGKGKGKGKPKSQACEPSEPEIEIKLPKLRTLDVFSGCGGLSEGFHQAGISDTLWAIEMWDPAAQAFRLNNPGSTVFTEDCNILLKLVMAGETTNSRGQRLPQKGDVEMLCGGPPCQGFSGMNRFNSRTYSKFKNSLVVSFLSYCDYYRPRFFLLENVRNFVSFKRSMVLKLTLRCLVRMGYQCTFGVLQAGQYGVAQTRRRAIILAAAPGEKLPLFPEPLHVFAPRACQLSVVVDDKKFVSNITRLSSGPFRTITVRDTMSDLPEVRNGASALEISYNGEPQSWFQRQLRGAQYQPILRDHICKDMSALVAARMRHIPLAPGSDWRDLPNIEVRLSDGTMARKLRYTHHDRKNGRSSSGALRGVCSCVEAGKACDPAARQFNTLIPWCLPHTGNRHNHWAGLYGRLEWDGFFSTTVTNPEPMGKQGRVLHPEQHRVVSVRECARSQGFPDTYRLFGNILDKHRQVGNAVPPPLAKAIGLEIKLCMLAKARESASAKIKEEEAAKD

SMILES | decrease of COX-2 gene expression (Human THP-1 macrophages) | decrease of IL-6 gene expression (Human THP-1 macrophages) | part of formed 25HC3S released into the media (Hep G2 cells) | effect on DNMT1 enzymatic activity (recombinant DNMT1) | effect on DNMT3b enzymatic activity (recombinant DNMT3b) | effect on DNMT3a enzymatic activity (recombinant DNMT3a) | part of the compound converted to 27HC3S (Hep G2 cells) | part of the compound converted to CA3S (Hep G2 cells)
CC(CCC[C@@H](C)[C@H]1CCC2[C@@H]3CC=C4CC(OS(=O)(=O)O)CC[C@]4(C)C3CC[C@@]21C)C(=O)O (stereo partly drawn) [CA3S, 3 β-hydroxy-5-cholestenoic acid 3-sulfate] | 5 fold | 6 fold |  |  |  |  |  | 
C[C@H](CCCC(C)(C)O)[C@H]1CC[C@H]2[C@@H]3CC=C4C[C@@H](O)CC[C@]4(C)[C@H]3CC[C@]12C [25HC, 25-hydroxycholesterol] |  |  | ⅓ | potent activators | do not have any effect | do not have any effect |  | 
C[C@@H](CO)CCC[C@@H](C)[C@H]1CC[C@H]2[C@@H]3CC=C4C[C@@H](O)CC[C@]4(C)[C@H]3CC[C@]12C [27HC, 27-hydroxycholesterol] |  |  |  | potent activators | do not have any effect | do not have any effect | ⅓ | ⅔
